Where two headings read alike, the source gives them in different places. Ends that are not written are not given here.

For one assay, the target named is T1, DRB1*0802 (Homo sapiens, UniProt P01903+P01911, A100R/A103L/A169T/F76Y/H45Y/I96F/K41T/L162R/M171V/P40S/Q125H/Q178H/Q39Y/Q99D/R218S/R42G/S66Y/V115G/W38E).
T1 construct: Epstein-Barr virus (EBV) transformed homozygous cell lines were used as sources of human HLA Class II molecules; endogenous in cells; host or cells: OLL (EBV-transformed homozygous B cell line)
Kind of assay: Class II peptide-binding assay DRB1*0802 (DR8w2).

A further assay addresses T2, DRB1*0405 (Homo sapiens, UniProt P01903+P01911, A100R/A169T/D86S/F76Y/I96L/K127E/L162R/M171V/N62H/P40V/Q125Y/R42H/S133A/S149N/S66Y/V115G/V209L/W38E).
T2 construct: Epstein-Barr virus (EBV) transformed homozygous cell lines were used as sources of human HLA Class II molecules; endogenous in cells; host or cells: KT3 (EBV-transformed homozygous B cell line)
Nature of the assay: Class II peptide-binding assay DRB1*0405 (DR4w15).

In another assay the target is T3, DRB1*1101 (Homo sapiens, UniProt P01903+P01911, A100R/A169T/A87E/I96F/K41T/L162R/M171V/P40S/Q125H/Q178H/Q39Y/Q99D/R42S/S66Y/T262R/V115G/W38E).
T3 construct: Epstein-Barr virus (EBV) transformed homozygous cell lines were used as sources of human HLA Class II molecules; endogenous in cells; host or cells: SWEIG (EBV-transformed homozygous B cell line)
Nature of the assay: Class II peptide-binding assay DRB1*1101 (DR5w11).

Another assay has as its target T4, DRB5*0101 (Homo sapiens, UniProt P01903+Q30154).
T4 construct: Epstein-Barr virus (EBV) transformed homozygous cell lines were used as sources of human HLA Class II molecules; endogenous in cells; host or cells: GM3107 (EBV-transformed homozygous B cell line)
Kind of assay: Class II peptide-binding assay DRB5*0101 (DR2w2a).

Another assay addresses DRB1*0901 (Homo sapiens, UniProt P01903+P01911, A100R/A103E/D57H/D86V/F55Y/F60I/F76Y/I96F/K127E/L162R/M171V/P40D/Q125H/Q99R/R33Q/R42F/S133A/S66N/T210M/V115G/W38K/Y107V/Y59G/Y89S). Nature of the assay: Class II peptide-binding assay DRB1*0901 (DR9).
The target in another assay is T5, DRB1*0404 (Homo sapiens, UniProt P01903+P01911, A100R/A169T/F76Y/I96L/K127E/L162R/M171V/N62H/P40V/Q125Y/R42H/S133A/S149N/S66Y/V209L/W38E).
T5 construct: Epstein-Barr virus (EBV) transformed homozygous cell lines were used as sources of human HLA Class II molecules; endogenous in cells; host or cells: BIN40 (EBV-transformed homozygous B cell line)
Nature of the assay: Class II peptide-binding assay DRB1*0404 (DR4w14).

The target of a further assay is T6, DRB4*0101 (Homo sapiens, UniProt P01903+P13762, G164S).
T6 construct: expressed in transfected cells; host or cells: transfected fibroblasts L257.6
Nature of the assay: Class II peptide-binding assay DRB4*0101 (DRw53).

A further assay addresses T7, DRB1*1302 (Homo sapiens, UniProt P01903+P01911, A100E/A169T/K41T/L162R/M171V/P40S/Q125H/Q178H/Q39Y/Q99D/R42S/S66N/T262R/V115G/W38E/Y61H).
T7 construct: Epstein-Barr virus (EBV) transformed homozygous cell lines were used as sources of human HLA Class II molecules; endogenous in cells; host or cells: HO301 / H0301 (EBV-transformed homozygous B cell line)
Nature of the assay: Class II peptide-binding assay DRB1*1302 (DR6w19).

The next assay addresses T8, DRB1*0101 (Homo sapiens, UniProt P01903+P01911, A100R/D57E/F55L/F60I/F76Y/I96L/L162R/M171V/P40L/Q125E/R42F/V115G/Y59C).
T8 construct: Epstein-Barr virus (EBV) transformed homozygous cell lines were used as sources of human HLA Class II molecules; endogenous in cells; host or cells: LG2 (EBV-transformed homozygous B cell line)
Nature of the assay: Class II peptide-binding assay DRB1*0101 (DR1).

The target in a further assay is T9, DRB1*0701 (Homo sapiens, UniProt P01903+P01911, A100R/A102G/A103Q/D57E/D86V/E43K/F76Y/K127E/L162R/M171V/P40G/Q125H/Q99D/R33Q/R42Y/R54Q/S133A/S66F/T210M/V115G/Y107V/Y59L/Y89S).
T9 construct: Epstein-Barr virus (EBV) transformed homozygous cell lines were used as sources of human HLA Class II molecules; endogenous in cells; host or cells: PITOUT (EBV-transformed homozygous B cell line)
Nature of the assay: Class II peptide-binding assay DRB1*0701 (DR7).

A further assay concerns the target DQB1*0301 (Homo sapiens, UniProt P01909+P01920). Nature of the assay: Class II peptide-binding assay DQB1*0301.
The next assay deals with T10, DRB1*0401 (Homo sapiens, UniProt P01903+P01911, A100K/A169T/F76Y/I96L/K127E/L162R/M171V/N62H/P40V/Q125Y/R42H/S133A/S149N/S66Y/V115G/V209L/W38E).
T10 construct: Epstein-Barr virus (EBV) transformed homozygous cell lines were used as sources of human HLA Class II molecules; endogenous in cells; host or cells: PREISS (EBV-transformed homozygous B cell line)
Kind of assay: Class II peptide-binding assay DRB1*0401 (DR4w4).

The next assay concerns the target T11, DRB1*0301 (Homo sapiens, UniProt P01903+P01911, A100K/A102G/A103R/A169T/F55Y/I96L/K41T/L162R/M171V/P40S/Q125H/Q178H/Q39Y/R42S/S66N/T106N/T262R/W38E/Y61H).
T11 construct: Epstein-Barr virus (EBV) transformed homozygous cell lines were used as sources of human HLA Class II molecules; endogenous in cells; host or cells: MAT (EBV-transformed homozygous B cell line)
Nature of the assay: Class II peptide-binding assay DRB1*0301 (DR3).

Another assay has as its target T12, DRB3*0101 (Homo sapiens, UniProt P01903+P79483).
T12 construct: expressed in transfected cells; host or cells: transfected fibroblasts TR81.19
Nature of the assay: Class II peptide-binding assay DRB3*0101 (DR52a).

Sequence of DQB1*0301 (P01920 33-261, other chains not shown): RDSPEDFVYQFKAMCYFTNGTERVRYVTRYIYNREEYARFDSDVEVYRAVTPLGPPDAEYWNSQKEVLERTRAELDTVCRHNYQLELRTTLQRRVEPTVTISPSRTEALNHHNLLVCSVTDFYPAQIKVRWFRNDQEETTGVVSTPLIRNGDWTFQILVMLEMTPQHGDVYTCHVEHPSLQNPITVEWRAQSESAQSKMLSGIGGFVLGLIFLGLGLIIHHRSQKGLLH
T3 sequence (P01903 26-254, other chains not shown): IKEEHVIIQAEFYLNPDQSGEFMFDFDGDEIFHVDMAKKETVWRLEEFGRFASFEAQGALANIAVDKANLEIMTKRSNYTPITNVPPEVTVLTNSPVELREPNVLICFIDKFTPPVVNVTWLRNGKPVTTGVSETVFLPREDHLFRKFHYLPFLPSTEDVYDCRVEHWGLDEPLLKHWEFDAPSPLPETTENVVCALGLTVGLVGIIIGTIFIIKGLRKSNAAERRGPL
T7 sequence (P01903 26-254, other chains not shown): as above
T11 sequence (P01903 26-254, other chains not shown): as above

A word on the IC50: it is the point on the concentration scale where inhibition reaches its midpoint. Low values mean greater potency, high ones weaker potency. Regarding `CC[C@H](C)[C@H](NC(=O)CNC(=O)[C@@H]1CCCN1C(=O)[C@H](CC(C)C)NC(=O)[C@H](CC(=O)O)NC(=O)[C@H](Cc1ccccc1)NC(=O)[C@H](CCC(=O)O)NC(=O)[C@@H](NC(=O)[C@@H](NC(=O)[C@H](Cc1ccccc1)NC(=O)[C@@H](N)CCC(=O)O)C(C)C)C(C)C)C(=O)N[C@@H](CCCCN)C(=O)N[C@@H](C)C(=O)O`, the IC50 at DRB1*0802 was 16.9 µM; at DRB1*0405 it was > 2.5 µM; at DRB1*1101 it was > 20 µM; on DRB5*0101, > 20 µM; at DRB1*0901, > 10 µM; on DRB1*0404, > 20 µM. Besides, the IC50 at DRB4*0101 is 4.25 µM; on DRB1*1302 it was > 10 µM; on DRB1*0101 it was > 20 µM; at DRB1*0701, > 20 µM.

For the compound `CC[C@H](C)[C@H](NC(=O)[C@H](CC(=O)O)NC(=O)[C@H](C)NC(=O)[C@H](C)NC(=O)[C@H](Cc1c[nH]cn1)NC(=O)[C@H](Cc1ccc(O)cc1)NC(=O)[C@H](C)NC(=O)[C@H](CCC(=O)O)NC(=O)[C@H](CCC(=O)O)NC(=O)[C@H](CCCNC(=N)N)NC(=O)[C@H](Cc1c[nH]c2ccccc12)NC(=O)[C@@H](NC(=O)[C@@H](N)CCC(=O)O)C(C)C)C(=O)N[C@@H](CCCCN)C(=O)N[C@@H](CC(=O)O)C(=O)O`, the concentration for half-maximal inhibition (IC50) at DQB1*0301 (known HLA-DR and DQ restricted epitopes, Table 6) was > 20 µM.

With `CC(C)C[C@H](NC(=O)CN)C(=O)N[C@@H](CCCNC(=N)N)C(=O)N[C@@H](CO)C(=O)N[C@@H](CC(C)C)C(=O)N[C@H](C(=O)N[C@H](C(=O)N[C@@H](CC(C)C)C(=O)N[C@@H](CC(C)C)C(=O)N[C@@H](CC(=O)O)C(=O)N[C@@H](C)C(=O)N[C@@H](CC(C)C)C(=O)NCC(=O)N[C@@H](C)C(=O)N[C@@H](CCC(N)=O)C(=O)O)[C@@H](C)O)[C@@H](C)O`, the 50% inhibitory concentration (IC50) was 0.24 µM on DRB1*0802; 0.011 µM at DRB1*0405; 0.01 µM at DRB1*1101; 0.0085 µM on DRB1*0401; 0.804 µM at DRB5*0101; 13 µM at DRB1*0301. Also, the 50% inhibitory concentration (IC50) on DRB1*0404 worked out at 0.0093 µM; on DRB1*0101, 0.014 µM; on DRB1*0701, 10.3 µM.

On to CLKDRRNFDIPEEIK, for which the 50% inhibitory concentration (IC50) was determined as 19.4 µM at DQB1*0301 (IFNb 15-mer peptides, Table 5D); 3.09 µM on DRB5*0101 (IFNb 15-mer peptides, Table 5D); 17 µM at DRB3*0101 (IFNb 15-mer peptides, Table 5D); 20.1 µM on DRB4*0101 (IFNb 15-mer peptides, Table 5D).

Turning to DIEKKIAKMEKASSVFNVVNS, the IC50 at DRB1*0802 is > 20 µM; at DRB1*0405, 3.39 µM; at DRB1*1101 it was 0.09 µM; at DRB1*0401, 0.097 µM; on DRB5*0101, 1.81 µM; on DRB1*0901, > 20 µM. Moreover, the IC50 is 0.992 µM on DRB1*0404; > 20 µM on DRB3*0101; > 20 µM at DRB4*0101; > 15 µM at DRB1*1302; 2.49 µM on DRB1*0701.

Consider DTGRKLFRVYSNFLR, for which the IC50 was found to be 0.039 µM on DRB1*0405; 0.026 µM on DRB1*1101; 0.046 µM on DRB1*0401; 0.012 µM on DRB5*0101; 1.28 µM on DRB1*0301; 0.161 µM on DRB1*0901. Further, the IC50 worked out at 1.13 µM on DRB4*0101, 0.0075 µM on DRB1*1302 and 0.018 µM on DRB1*0101.

Regarding GRLEYCLKDRRNFDI, on DQB1*0301 (IFNb 15-mer peptides, Table 5D), the IC50 is 6.35 µM. In other words, the single-digit micromolar range.

Consider KEDSHCAWTIVRVEI, for which the IC50 on DQB1*0301 (IFNb 15-mer peptides, Table 5D) came to 4.1 µM. This IC50 is about 1.5-fold lower than that of the compound before.

In turn, MSYNLLGFLQRSSNC came in with an IC50 at DQB1*0301 (IFNb 15-mer peptides, Table 5D) of 7.45 µM.

QKEDAAVTIYEMLQN: the IC50 on DQB1*0301 (IFNb 15-mer peptides, Table 5D) was determined as 0.515 µM.

The values are drawn from patent US20070184519A1, “Peptides, polypeptides, and proteins of reduced immunogenicity and methods for their production” (priority 2003, published 2007).
